Laboratory results published in patent EP2181708A1, “Use of Valproate for reducing CHOP levels, particularly in a mammal having SCI” (Universitat Autonoma de Barcelona, priority 2008, dated 2010).

What was measured:
CHOP = experiment: Tunicamycin-induced ER stress in HEK cell line, Western blot of CHOP; type: cell-based; conditions: 3 µg/ml tunicamycin, valproate
Protocol: Primary fibroblasts obtained from rat sciatic nerve and HEK cell line were cultured in Dulbecco's modified Eagle's/F-12 medium supplemented with 10% fetal calf serum (Gibco). Fibroblasts were treated with 3 µg/mL of tunicamycin (Sigma) for 4 h and harvested in RIPA buffer for protein extraction.
We have recently reported that SCI triggers an unbalanced UPR characterized by unchanged levels of BiP/Grp78 levels but progressive accumulation of the pro-apoptotic protein CHOP, with maximal CHOP levels found at 3 days post-injury in the weight-drop contusion model (Penas et al, 2007). In this study, we used a contusion model using an impactor device to specifically control the force (either 150 KDyn or 250 KDyn) to be apply on the T8 laminectomized spinal cord segment. We analyzed the spinal cord 8 mm-length segment that includes the lesion epicenter from sham-operated animals and from VPA treated or vehicle treated SCI animals at 3 days after operation. […] Thus, we increased the amount of VPA administered to 300 mg/kg every 12 h, as reported previously for a brain stroke rat model (Kim et al, 2007), and analyzed the effect using two different contusion forces of 150 and 250 KDyn. We observed that the levels of CHOP were directly proportional to the severity of the lesion; the more severe, the higher the level. […]

axons = experiment: Immunohistochemistry of axons (RT97 neurofilament, 5-HT) after SCI; type: in vivo, Sprague-Dawley rats
Protocol: (§1) Adult females Sprague-Dawley rats aged 11 weeks (220-250 g) were anesthetized with pentobarbital (40 mg/kg i.p.). When unresponsive, the vertebral column was exposed and a laminectomy carried out at T8-T9 levels. Rostral T7 and caudal T10 vertebral bodies were clamped with Adson stabilizing forceps, and carefully adjusted to level the spinal cord in the horizontal plane. A contusion injury was performed using the Infinite Horizon impactor device (Precision Scientific Instruments, Lexington, KY). The stainless steel impounder tip was placed at 3-4 mm above the exposed spinal cord, and then a fast impact produced applying forces of 150 or 250 kilodynes (KDyn) to the exposed spinal cord. The wound was sutured with 5-0 silk thread in the muscular plane and the skin was closed with small clips and disinfected with povidone iodine solution. Sham-operated animals received the same surgical procedure but sustained no impact injury; the spinal cord was left exposed for 5 min. The animals were maintained in a warm environment until full recovery, and received preventive antibiotic (amoxicyline) and analgesic (buprenorphine) treatment. All animals were kept under standard conditions of light and temperature and fed with food and water ad libitum. […]

BiP/Grp78 = experiment: Western blot of BiP/Grp78 in spinal cord after contusion SCI; type: in vivo, Sprague-Dawley rats
Protocol: as §1, with “treatment.” for “treatment. All animals were kept under standard conditions of light and temperature and fed with food and water ad libitum.”
(§2) Rats were re-anesthetised and decapitated at 3 dpo for sample preparation. […] After clearance, protein concentration was measured by the BCA method assay (BCA Protein Assay kit, Pierce). […]

hind limb locomotion = experiment: Open-field walking test (BBB scale) after spinal cord contusion; type: in vivo, Sprague-Dawley rats; conditions: SCI 250 Kdyn
Protocol: as §1

[1] = tested on: acetylated histone-3 (acetyl-H3); experiment: Western blot of acetylated histone-3 in spinal cord after contusion SCI; type: in vivo, Sprague-Dawley rats; conditions: 250 Kdyn contusion, VPA every 12 h, vs SCI without VPA
Protocol: as §1, with “treatment.” for “treatment. All animals were kept under standard conditions of light and temperature and fed with food and water ad libitum.”
as §2

CCCC(CCC)C(=O)O [VPA, 2-propylpentanoic acid]
CHOP accumulation promoted by tunicamycin (CHOP): can be attenuated
density of axonal profiles (axons; anti-neurofilament antibody RT97, rostral and caudal to the lesion): increased density
number of serotonin (5-HT)-positive axons (axons; rostral and caudal to the lesion): increased
BiP levels (BiP/Grp78; VPA 300 mg/kg every 12 h i.p., contusion 150 and 250 KDyn, three days post-injury): not able to alter
BiP levels (BiP/Grp78; VPA 300mg/kg once per day i.p., vs saline, 3 days post-injury): did not produce changes
BBB score (hind limb locomotion; 7 days post-surgery, average of both groups): 3-4
BBB score (hind limb locomotion; 35 days, VPA 300 mg/kg every 12 h one week then every 24 h two weeks, saline 8): 12
levels of acetylated H3 [1]: further increased
